Laboratory results reported in patent US20230085307A1, “PYRIDAZINONE COMPOUND AND HERBICIDE” (NISSAN CHEMICAL CORPORATION, priority 2019, published 2023).

Assays:
green foxtail = assay: Test Example 4: herbicidal effect by soil treatment (Table 19, symbol G); assay type: in vivo, green foxtail (Setaria viridis); conditions: 320 g/ha
Procedure, shortened: (§1)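 Herbicidal effect was rated 3 weeks after treatment, using the scoring criteria of an earlier test. The compound, formulated as an emulsion and diluted in water to a set herbicide amount, had been sprayed uniformly on soil over freshly sown seeds. Growth took place in a greenhouse at 25° C. to 30° C.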

barnyard grass [1] = assay: Test Example 3: herbicidal effect by foliage application, Wagner pot (Table 18, symbol H); assay type: in vivo, barnyard grass (Echinochloa crus-galli); conditions: 320 g/ha
Procedure, shortened: (§2)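 Plants were sown in alluvial soil held under 0.1–0.5 cm standing water and grown 14 days in a greenhouse at 25–30 °C. An emulsifiable formulation, water-diluted to the set dose, was then sprayed onto the foliage, and effects were scored three weeks later using previously defined criteria.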

persian speedwell = assay: Test Example 5: herbicidal effect by foliage application, plastic box (Table 20, symbol R); assay type: in vivo, Persian speedwell (Veronica persica); conditions: foliage application, 320 g/ha, evaluated three weeks after application
Procedure, shortened: (§3)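 Foliar spray test: emulsion formulation diluted in water to a set application rate, sprayed onto 14-day-old plants raised in diluvial soil at 25° C to 30° C under glass. Both herbicidal effect and crop effect rated visually three weeks later.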

wild oat [2] = assay: Test Example 4: herbicidal effect by soil treatment (Table 19, symbol I); assay type: in vivo, wild oat (Avena fatua); conditions: 320 g/ha
Procedure, shortened: as §1

barnyard grass [3] = assay: Test Example 4: herbicidal effect by soil treatment (Table 19, symbol H); assay type: in vivo, barnyard grass (Echinochloa crus-galli); conditions: 320 g/ha
Procedure, shortened: as §1

lambsquarters [4] = assay: Test Example 4: herbicidal effect by soil treatment (Table 19, symbol O); assay type: in vivo, lambsquarters (Chenopodium album); conditions: 320 g/ha
Procedure, shortened: as §1

southern crabgrass [5] = assay: Test Example 5: herbicidal effect by foliage application, plastic box (Table 20, symbol F); assay type: in vivo, southern crabgrass (Digitaria ciliaris); conditions: foliage application, 320 g/ha, evaluated three weeks after application
Procedure, shortened: as §3

windgrass = assay: Test Example 5: herbicidal effect by foliage application, plastic box (Table 20, symbol L); assay type: in vivo, windgrass (Apera spica-venti); conditions: foliage application, 320 g/ha, evaluated three weeks after application
Procedure, shortened: as §3

rice flat sedge = assay: Test Example 3: herbicidal effect by foliage application, Wagner pot (Table 18, symbol E); assay type: in vivo, rice flat sedge (Cyperus iria); conditions: 320 g/ha
Procedure, shortened: as §2

Japanese bulrush = assay: Test Example 2: herbicidal activity, application during weed generation under submerged conditions (Table 17, symbol B); assay type: in vivo, Japanese bulrush (Schoenoplectus juncoides); conditions: AAH 320 g/ha; application during weed generation, submerged conditions
Procedure, shortened: (§4)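 Herbicide emulsion, diluted with water to the chosen amount, is applied onto 4 cm floodwater over alluvial soil where the weeds were co-sown and raised at 25–30° C. Application timing: 1–2 leaves. Assessment: three weeks afterwards.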

chickweed = assay: Test Example 4: herbicidal effect by soil treatment (Table 19, symbol P); assay type: in vivo, common chickweed (Stellaria media); conditions: 320 g/ha
Procedure, shortened: as §1

late watergrass = assay: Test Example 2: herbicidal activity, application during weed generation under submerged conditions (Table 17, symbol A); assay type: in vivo, late watergrass (Echinochloa oryzicola); conditions: AAH 320 g/ha; application during weed generation, submerged conditions
Procedure, shortened: as §4

blackgrass = assay: Test Example 5: herbicidal effect by foliage application, plastic box (Table 20, symbol J); assay type: in vivo, blackgrass (Alopecurus myosuroides); conditions: foliage application, 320 g/ha, evaluated three weeks after application
Procedure, shortened: as §3

redroot pigweed [6] = assay: Test Example 5: herbicidal effect by foliage application, plastic box (Table 20, symbol N); assay type: in vivo, redroot pigweed (Amaranthus retroflexus); conditions: foliage application, 320 g/ha, evaluated three weeks after application
Procedure, shortened: as §3

Italian ryegrass [7] = assay: Test Example 4: herbicidal effect by soil treatment (Table 19, symbol K); assay type: in vivo, Italian ryegrass (Lolium multiflorum); conditions: 320 g/ha
Procedure, shortened: as §1

Italian ryegrass [8] = assay: Test Example 5: herbicidal effect by foliage application, plastic box (Table 20, symbol K); assay type: in vivo, Italian ryegrass (Lolium multiflorum); conditions: foliage application, 320 g/ha, evaluated three weeks after application
Procedure, shortened: as §3

wild oat [9] = assay: Test Example 5: herbicidal effect by foliage application, plastic box (Table 20, symbol I); assay type: in vivo, wild oat (Avena fatua); conditions: foliage application, 320 g/ha, evaluated three weeks after application
Procedure, shortened: as §3

southern crabgrass [10] = assay: Test Example 4: herbicidal effect by soil treatment (Table 19, symbol F); assay type: in vivo, southern crabgrass (Digitaria ciliaris); conditions: 320 g/ha
Procedure, shortened: as §1

barnyard grass [11] = assay: Test Example 5: herbicidal effect by foliage application, plastic box (Table 20, symbol H); assay type: in vivo, barnyard grass (Echinochloa crus-galli); conditions: foliage application, 320 g/ha, evaluated three weeks after application
Procedure, shortened: as §3

velvetleaf = assay: Test Example 4: herbicidal effect by soil treatment (Table 19, symbol M); assay type: in vivo, velvetleaf (Abutilon theophrasti); conditions: 320 g/ha
Procedure, shortened: as §1

redroot pigweed [12] = assay: Test Example 4: herbicidal effect by soil treatment (Table 19, symbol N); assay type: in vivo, redroot pigweed (Amaranthus retroflexus); conditions: 320 g/ha
Procedure, shortened: as §1

lambsquarters [13] = assay: Test Example 5: herbicidal effect by foliage application, plastic box (Table 20, symbol O); assay type: in vivo, lambsquarters (Chenopodium album); conditions: foliage application, 320 g/ha, evaluated three weeks after application
Procedure, shortened: as §3

| Structure (SMILES) | herbicidal effect rating, G: green foxtail (green foxtail) | herbicidal effect on H (barnyard grass), rating 0-5 (barnyard grass [1]) | herbicidal effect on R: persian speedwell (persian speedwell) | herbicidal effect rating, I: wild oat (wild oat [2]) | herbicidal effect rating, H: barnyard grass (barnyard grass [3]) | herbicidal effect rating, O: lambsquarters (lambsquarters [4]) | herbicidal effect on F: southern crabgrass (southern crabgrass [5]) | herbicidal effect on L: windgrass (windgrass) | herbicidal effect on E (rice flat sedge), rating 0-5 (rice flat sedge) | herbicidal effect rating, B: Japanese bulrush (Japanese bulrush) | herbicidal effect rating, P: chickweed (chickweed) | herbicidal effect rating, A: late watergrass (late watergrass) | herbicidal effect on J: blackgrass (blackgrass) | herbicidal effect on N: redroot pigweed (redroot pigweed [6]) | herbicidal effect rating, K: Italian ryegrass (Italian ryegrass [7]) | herbicidal effect on K: Italian ryegrass (Italian ryegrass [8]) | herbicidal effect on I: wild oat (wild oat [9]) | herbicidal effect rating, F: southern crabgrass (southern crabgrass [10]) | herbicidal effect on H: barnyard grass (barnyard grass [11]) | herbicidal effect rating, M: velvetleaf (velvetleaf) | also measured |
| --- | --- | --- | --- | --- | --- | --- | --- | --- | --- | --- | --- | --- | --- | --- | --- | --- | --- | --- | --- | --- | --- |
| C#CCOc1ccc(-c2sc3ccc(F)cc3c2-c2c(O)c(C)nn(C)c2=O)cc1 [2-053] | 4 (Herbicidal rate of 70% or more and less than 90%) | 5 (Herbicidal rate of 90% or more (almost completely withered)) | 5 (Herbicidal rate of 90% or more (almost completely withered)) | 0 (Herbicidal rate of 5% or less (almost no effect)) | 2 (Herbicidal rate of 20% or more and less than 40%) | 3 (Herbicidal rate of 40% or more and less than 70%) | 4 (Herbicidal rate of 70% or more and less than 90%) | 4 (Herbicidal rate of 70% or more and less than 90%) | 4 (Herbicidal rate of 70% or more and less than 90%) | 3 (Herbicidal rate of 40% or more and less than 70%) | 1 (Herbicidal rate of 5% or more and less than 20%) | 0 (Herbicidal rate of 5% or less (almost no effect)) | 4 (Herbicidal rate of 70% or more and less than 90%) | 5 (Herbicidal rate of 90% or more (almost completely withered)) | 0 (Herbicidal rate of 5% or less (almost no effect)) | 5 (Herbicidal rate of 90% or more (almost completely withered)) | 2 (Herbicidal rate of 20% or more and less than 40%) | 0 (Herbicidal rate of 5% or less (almost no effect)) | 5 (Herbicidal rate of 90% or more (almost completely withered)) | 3 (Herbicidal rate of 40% or more and less than 70%) | herbicidal effect rating, N: redroot pigweed (redroot pigweed [12]): 0 (Herbicidal rate of 5% or less (almost no effect)); herbicidal effect on O: lambsquarters (lambsquarters [13]): 5 (Herbicidal rate of 90% or more (almost completely withered)) |
| CSc1ccc(-c2sc3ccc(F)cc3c2-c2c(O)c(C)nn(C)c2=O)cc1 [2-076] | 4 (Herbicidal rate of 70% or more and less than 90%) | 5 (Herbicidal rate of 90% or more (almost completely withered)) | 5 (Herbicidal rate of 90% or more (almost completely withered)) | 0 (Herbicidal rate of 5% or less (almost no effect)) | 3 (Herbicidal rate of 40% or more and less than 70%) | 3 (Herbicidal rate of 40% or more and less than 70%) | 5 (Herbicidal rate of 90% or more (almost completely withered)) | 5 (Herbicidal rate of 90% or more (almost completely withered)) | 5 (Herbicidal rate of 90% or more (almost completely withered)) | 3 (Herbicidal rate of 40% or more and less than 70%) | 4 (Herbicidal rate of 70% or more and less than 90%) | 2 (Herbicidal rate of 20% or more and less than 40%) | 4 (Herbicidal rate of 70% or more and less than 90%) | 5 (Herbicidal rate of 90% or more (almost completely withered)) | 4 (Herbicidal rate of 70% or more and less than 90%) | 4 (Herbicidal rate of 70% or more and less than 90%) | 5 (Herbicidal rate of 90% or more (almost completely withered)) | 3 (Herbicidal rate of 40% or more and less than 70%) | 5 (Herbicidal rate of 90% or more (almost completely withered)) | 2 (Herbicidal rate of 20% or more and less than 40%) | herbicidal effect rating, N: redroot pigweed (redroot pigweed [12]): 5 (Herbicidal rate of 90% or more (almost completely withered)); herbicidal effect on O: lambsquarters (lambsquarters [13]): 5 (Herbicidal rate of 90% or more (almost completely withered)) |
| CCCC(=O)Oc1c(C)nn(C)c(=O)c1-c1c(-c2ccc(SC)cc2)sc2ccc(F)cc12 [2-077] | 4 (Herbicidal rate of 70% or more and less than 90%) | 5 (Herbicidal rate of 90% or more (almost completely withered)) | 5 (Herbicidal rate of 90% or more (almost completely withered)) | 2 (Herbicidal rate of 20% or more and less than 40%) | 3 (Herbicidal rate of 40% or more and less than 70%) | 5 (Herbicidal rate of 90% or more (almost completely withered)) | 5 (Herbicidal rate of 90% or more (almost completely withered)) | 5 (Herbicidal rate of 90% or more (almost completely withered)) | 5 (Herbicidal rate of 90% or more (almost completely withered)) | 3 (Herbicidal rate of 40% or more and less than 70%) | 5 (Herbicidal rate of 90% or more (almost completely withered)) | 4 (Herbicidal rate of 70% or more and less than 90%) | 4 (Herbicidal rate of 70% or more and less than 90%) | 5 (Herbicidal rate of 90% or more (almost completely withered)) | 3 (Herbicidal rate of 40% or more and less than 70%) | 5 (Herbicidal rate of 90% or more (almost completely withered)) | 5 (Herbicidal rate of 90% or more (almost completely withered)) | 2 (Herbicidal rate of 20% or more and less than 40%) | 5 (Herbicidal rate of 90% or more (almost completely withered)) | 3 (Herbicidal rate of 40% or more and less than 70%) | herbicidal effect rating, N: redroot pigweed (redroot pigweed [12]): 5 (Herbicidal rate of 90% or more (almost completely withered)); herbicidal effect on O: lambsquarters (lambsquarters [13]): 5 (Herbicidal rate of 90% or more (almost completely withered)) |
